Read-outs that look alike come from different tables or passages of the source.
Assays:
[1] = healthy subjects, cited from earlier work; for AUC increase / Cmax increase / Cmin increase: saquinavir/ritonavir 1000/100 mg twice daily with tenofovir disoproxil fumarate 300 mg once daily vs alone
[2] = cited from earlier work; for Geometric mean ratio (95% confidence interval) for the AUC: saquinavir hard gel/ritonavir 1000/100 mg twice daily + tenofovir disoproxil fumarate 300 mg once daily
[3] = ritonavir 100 mg once daily with atazanavir, cited from earlier work
[4] = tested on: laboratory HIV-1 strains and primary clinical isolates; details: cited from earlier work
HIV-1 RT = biological target: T1, HIV-1 RT (Human immunodeficiency virus type 1 group M subtype B, UniProt P04585); details: inhibition of HIV-1 RT; competitive with deoxyadenosine triphosphate incorporation; read-out: inhibition constant; cited from earlier work
T1 construct: The primary target of tenofovir diphosphate is reverse transcriptase (RT)

[5] = lopinavir/ritonavir 400/100 mg twice daily 14 days + tenofovir 300 mg once daily, healthy volunteers; cited from earlier work
[6] = Volunteer study of TMC114/ritonavir with tenofovir disoproxil fumarate, pharmacokinetics and tolerability
Description: Methods: 13 healthy volunteers were randomised into 2 cohorts.
In session 2, both cohorts received 300 mg tenofovir disoproxil fumarate qd for 14 days.

[7] = atazanavir/ritonavir 300/100 mg once daily, cited from earlier work
[8] = in the presence of tenofovir 300 mg once daily
[9] = tenofovir disoproxil fumarate 300 mg qd with TMC114/ritonavir co-administered vs alone, statistically significant
[10] = after addition of tenofovir disoproxil fumarate 300 mg once daily
[11] = before addition of tenofovir disoproxil fumarate

For `CC(C)(C)NC(=O)[C@@H]1C[C@@H]2CCCC[C@@H]2CN1C[C@@H](O)[C@H](Cc1ccccc1)NC(=O)[C@H](CC(N)=O)NC(=O)c1ccc2ccccc2n1` [saquinavir], the AUC increase [1] is given as 29%, the Cmax increase [1] is given as 22% and the Cmin increase [1] is given as 47%. For the same compound, the “Cmin achieved by all subjects” value ([1]; saquinavir/ritonavir 1000/100 mg twice daily) was “above 100 ng/ml”, the “Geometric mean ratio (95% confidence interval) for the AUC” value ([2]; day 3 vs day 1) was 1.16 (0.97, 1.59) and the “Geometric mean ratio (95% confidence interval) for the AUC” value ([2]; day 14 vs day 1) was 0.99 (0.87, 1.30). The “plasma concentrations compared with day 1” value ([2]; following the addition of tenofovir disoproxil fumarate) was “not significantly different”.

In the case of `CC(C)c1nc(CN(C)C(=O)N[C@H](C(=O)N[C@@H](Cc2ccccc2)C[C@H](O)[C@H](Cc2ccccc2)NC(=O)OCc2cncs2)C(C)C)cs1` [ritonavir], the “plasma concentrations compared with day 1” value ([2]; in vivo) is listed as “not significantly different”, the AUC [3, 8] is listed as 5217 ng·h/mL and the Cmax [3, 8] is listed as 642 ng/mL. For the same compound, the AUC ([3]; without tenofovir, HIV+ subjects) was 7011 ng·h/mL and the Cmax ([3]; without tenofovir) was 886 ng/mL.

For `CC(C)CN(C[C@@H](O)[C@H](Cc1ccccc1)NC(=O)OC1CO[C@H]2OCC[C@@H]12)S(=O)(=O)c1ccc(N)cc1` (some centres unmarked) [TMC114], the IC90 [4] is listed as ~9 nM and the IC50 ([4]; read-out: 50% inhibitory concentration [IC50]) is listed as ~3 nM.

In the case of `CC(Cn1cnc2c(N)ncnc21)OCP(=O)(O)OP(=O)(O)OP(=O)(O)O` (stereo in doubt) [tenofovir diphosphate], the Ki (HIV-1 RT) is given as ~900 nM.

In the case of `C[C@H](Cn1cnc2c(N)ncnc21)OCP(=O)(O)O` [tenofovir], the AUC increase [1] is given as 14%, the Cmax increase [1] is given as 15% and the Cmin increase [1] is given as 23%. The AUC increase [5] was 34%, the Cmax increase [5] was 31% and the Cmin increase [5] was 29%. The “urinary excretion of unchanged drug during one dosing interval” value ([6]; in the presence and absence of TMC114/RTV) was “approximately 36%”, the “AUC24h (systemic exposure) increase based on the ratio of LSmeans” value [6, 9] was 22% and the “Cmax increase based on the ratio of LSmeans” value [6, 9] was 24%. For the same compound, the “Cmin increase based on the ratio of LSmeans” value [6, 9] was 37%.

In the case of `COC(=O)N[C@H](C(=O)N[C@@H](Cc1ccccc1)[C@@H](O)CN(Cc1ccc(-c2ccccn2)cc1)NC(=O)[C@@H](NC(=O)OC)C(C)(C)C)C(C)(C)C` [atazanavir], the “AUC (mean±sd)” value [7, 10] is listed as 39276 ± 23034 ng·h/mL, the “Cmax (mean±sd)” value [7, 10] is listed as 3443 ± 1412 ng/mL and the “AUC (mean±sd)” value [7, 11] is listed as 53761 ± 35255 ng·h/mL. For the same compound, the “Cmax (mean±sd)” value [7, 11] was 5233 ± 3033 ng/mL.
